{"source": "patent US10113114B2", "about": "“Apparatus and method for coating particulate material” (BASF Corporation, priority 2013, dated 2018)", "test_system": "red imported fire ant (Solenopsis invicta) workers", "conditions": "all rates tested (0.5 to 3 X label rate)", "text": "Testing with red imported fire ant (Solenopsis invicta, RIFA), Argentine ant (Linepthema humile), and odorous house ant (OHA) workers. Ten inch plastic arenas (inside walls coated with Fluon® to prevent escape) were provided a layer of moistened play sand. A band of mulch was placed across the arena near one side. Between the closest side and the mulch, a micro-centrifuge tube with a universal ant diet was placed. In the larger open area of the arena was placed a water vial and a small weigh boat with either corn grit+soybean oil (RIFA) or 20% honey water (Argentine ant and OHA). Approximately 100 ants were placed in each arena. Mortality was evaluated at 6 or 7 days.", "data": [{"smiles": "CN/C(=N/CC1CCOC1)N[N+](=O)[O-]", "note": "(stereo not shown) [dinotefuran]", "values": [{"measurement": "efficacy of the insecticide on mulch (in words)", "result": "effective at all rates tested"}]}]}
